Results from publication PMC9045377, “CpxA Phosphatase Inhibitor Activates CpxRA and Is a Potential Treatment for Uropathogenic Escherichia coli in a Murine Model of Infection” (Microbiology Spectrum, 2022).

Legend:
[1] = system: HepG2 cells; assay: Cytotoxicity by LDH release in HepG2 cells; assay type: cell-based; details: 0 to 160 μM
Description: E. coli strain CFT073 and its derivative CFT073ΔcpxA::cat were described previously and maintained on Luria broth (LB) plates at 37°C ([30]). The E. coli PcpxP′-lacZ reporter strain, PAD282, was the gift of Thomas Silhavy (Princeton University, Princeton, NJ, USA) and was maintained on TB plates at 37°C ([31]). HepG2 hepatocellular carcinoma cells were the gift of Andy Yu (Indiana University, Indianapolis, IN) and were grown in RPMI […] medium (Gibco) containing 10% fetal calf serum (HyClone) and 1 mM sodium pyruvate (Sigma) at 37°C with 5% CO2 as described ([31]).
The cytotoxicity of compound 6 for HepG2 cells was determined by LDH release after incubation with the compound in concentrations ranging from 0 to 160 μM for 5 h and 24 h exactly as described ([31]). The IC50 was determined from quadruplicate experiments by the GraphPad Prism 6 software using a nonlinear fit model.

[2] = system: E. coli CFT073 proteome; assay: Label-free quantitative proteomics of CFT073 grown in human urine (LC-MS/MS); assay type: cell-based, Escherichia coli; details: 150 μM, 5 h
Description: E. coli CFT073 and CFT073ΔcpxA::cat were cultured overnight at 37°C in 5 mL of LB medium overnight with shaking. Bacteria were pelleted, washed twice in PBS, and suspended in 1 mL of PBS. Cells were then suspended in 10 mL of filter-sterilized pooled human urine obtained from 4 healthy female volunteers as described ([41]) to an OD600 of ∼0.02. Urine containing CFT073 was treated either with 150 mM compound 26 dissolved in 10 μL of DMSO to reach a final concentration of 150 μM or 10 μL of DMSO; urine containing CFT073ΔcpxA::cat was treated with 10 μL of DMSO. After 5 h of incubation, cultures were split into 5-mL aliquots, centrifuged, and the pellets were washed once with PBS and frozen at −80°C. One pellet from 4 independent experiments was used to detect CpxR-P using a Phos-Tag gel and Western blotting with an anti-MBP-CpxR antibody obtained from Thomas Silhavy as previously described ([31]). Densitometry values were determined using Photoshop 2021 (version 22.4.3), and the ratio of CpxR-P to CpxR was analyzed by one-way ANOVA adjusted for multiple comparisons using the Tukey procedure.
For label-free quantitative proteomics, cell pellets from 5 independent experiments were subjected for protein extraction followed by liquid chromatography-tandem mass spectrometry (LC-MS/MS). Sample preparation for LC-MS/MS analysis and proteomics pipeline was followed as described previously ([42]). In brief, bacteria were pelleted from urine cultures, and the pellets were solubilized in 1 mL of 8 M urea lysis buffer. Equal amounts of proteins (100 μg) were subjected for overnight trypsin/LysC (V5071; Promega) digestion. One microgram of bovine serum albumin (BSA) was added to each sample as an internal control prior to in-solution digestion. LC-MS/MS analysis was performed on a Dionex UltiMate 3000 (Thermo Fisher Scientific) system connected to a Q-Exactive HF-X mass spectrometer (Thermo Fisher Scientific). Detail settings of the LC-MS/MS analysis was described previously ([42]).
Peptide spectrum matching of MS/MS spectra was searched against the UniProt E. coli CFT073-UPEC database (TaxID 199310) using the Sequest algorithm within Proteome Discoverer version 2.4 software (Thermo Fisher Scientific). The Sequest database search was performed with the following parameters: trypsin enzyme cleavage specificity, 2 possible missed cleavages, 10 ppm mass tolerance for precursor ions, 0.02 Da mass tolerance for fragment ions. Search parameters permitted dynamic modification of methionine oxidation (+15.9949 Da) and static modification of carbamidomethylation (+57.0215 Da) on cysteine. Peptide assignments from the database search were filtered to a 1% false discovery rate. The relative label-free quantitative and comparative among the samples were performed using the Minora algorithm and Proteome Discoverer 2.4 software. Differential abundance of proteins between conditions was defined as a 1.5-fold change in relative abundance with an adjusted P value of <0.05.

[3] = threshold 1.5-fold, adjusted P <0.05

Row | SMILES | IC50, LDH release ([1]; 5 h incubation) | IC50 ([1]; Homo sapiens, 24 h incubation) | additional higher-abundance proteins vs CFT073 control only [2] | additional higher-abundance proteins vs CFT073ΔcpxA::cat control only [2] | additional lower-abundance proteins vs CFT073 control only [2] | additional lower-abundance proteins vs CFT073ΔcpxA::cat control only [2] | number of higher abundance proteins vs both controls [2, 3] | number of lower abundance proteins vs both controls [2, 3]
1 | NC1CCCc2c1[nH]c1ccc(F)cc21 (centres unmarked) [compound 6] | could not be calculated | > 33 µM | – | – | – | – | – | –
2 | N[C@@H]1CCCc2c1[nH]c1cc(F)c(F)cc21 [compound 26] | – | – | 27 | 28 | 12 | 10 | 42 | 53
